Data on 18 molecules can be found in patent publication US8546443B2, “Benzylic oxindole pyrimidines” (Boehringer Ingelheim International GmbH, priority 2010, dated 2013).

For test [1], the target named is T1, cytoplasmic kinase domain of human IGF-1R (IGF-1R-GST) (Homo sapiens, UniProt P08069).
T1 construct: cytoplasmic kinase domain of human IGF-1R (amino acids 964-1370); GST (glutathione-S-transferase); made in house; host or cells: High Five insect cells (Invitrogen)
Description: Insulin-like growth factor-1 receptor (IGF-1R) kinase assay (DELFIA). The following applies: IGF-1R-GST kinase activity, read-out: IGF1R IC50. The test is classed as biochemical. The procedure, abridged:
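GST-tagged IGF-1R cytoplasmic kinase domain phosphorylates pEY with biotinylated pEY for 40 min at RT; EDTA stop. Product captured on streptavidin, detected with europium anti-phosphotyrosine antibody by DELFIA time-resolved fluorescence; IC50 from inhibition curves.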

Test [2] deals with TC-71 (Ewing's sarcoma) cells. Description: Cell proliferation assay, TC-71 (Alamar Blue). The test is classed as cell-based. The following applies: 72 h with compound, EC50 ranges as class symbols. The procedure, abridged:
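TC-71 Ewing's sarcoma cells, 2000/well in IMDM + 10% FCS, attached overnight, then exposed to serial compound dilutions in duplicate for 72 h at 37° C. Viability by Alamar Blue (7 h; fluorescence ex 544/em 590 nm); IC50 from sigmoidal variable-slope fit of normalized data.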

T1 sequence (P08069 964-1367 limits assumed): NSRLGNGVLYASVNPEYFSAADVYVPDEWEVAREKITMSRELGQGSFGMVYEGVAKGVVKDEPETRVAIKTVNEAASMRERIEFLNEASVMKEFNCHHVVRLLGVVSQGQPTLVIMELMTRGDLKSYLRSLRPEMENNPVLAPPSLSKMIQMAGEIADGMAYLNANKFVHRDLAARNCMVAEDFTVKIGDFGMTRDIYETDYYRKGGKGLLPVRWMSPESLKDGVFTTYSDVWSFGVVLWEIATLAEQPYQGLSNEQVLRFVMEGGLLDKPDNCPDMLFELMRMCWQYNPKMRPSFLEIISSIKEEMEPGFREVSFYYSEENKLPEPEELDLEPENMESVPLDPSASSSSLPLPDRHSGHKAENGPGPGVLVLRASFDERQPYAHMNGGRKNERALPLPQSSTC

With `COCCN1CCCC(c2ccc(Nc3ncc(Br)c(NCc4cccc5c4C(C)(C)C(=O)N5)n3)c(C)c2)C1` (racemic) [Example I-359], the IC50 in test [1] was found to be 0.5 nM. In test [2], the EC50 is under 50 nM.
The like results for `COCCN1CCCC(c2ccc(Nc3ncc(Cl)c(NCc4cccc5c4C(C)(C)C(=O)N5)n3)c(OC)c2)C1` (racemic) [Example I-371] were, in that order, 0.8 nM and under 50 nM.
`CC1(C)C(=O)Nc2cccc(CNc3nc(Nc4ccc(C5CCCN(CCO)C5)cc4)ncc3Br)c21` (racemic) [Example I-358]: in test [1], the IC50 amounted to 0.7 nM. For the same molecule, the EC50 in test [2] is under 50 nM.
As to `COCCN1CCC[C@H](c2ccc(Nc3ncc(Br)c(NCc4cccc5c4C(C)(C)C(=O)N5)n3)c(C)c2)C1` [Example I-363], the IC50 in test [1] was 2 nM. Further, the half-maximal effective concentration (EC50) in test [2] lay in the range of 50 to 250 nM.
Regarding `Cc1cc(C2CCCN(CCO)C2)ccc1Nc1ncc(Br)c(NCc2cccc3c2C(C)(C)C(=O)N3)n1` (racemic) [Example I-364], in test [1], the concentration for half-maximal inhibition (IC50) was found to be 0.6 nM. In addition, in test [2], the 50% effective concentration (EC50) is under 50 nM.
Taken in the same sequence, the figures for `Cc1cc(C2CCCN(CC(O)C(F)(F)F)C2)ccc1Nc1ncc(Cl)c(NCc2cccc3c2C(C)(C)C(=O)N3)n1` (racemic) [Example I-329] were 2 nM and under 50 nM.
`Cc1cc(Nc2ncc(Cl)c(NCc3cccc4c3C(C)(C)C(=O)N4)n2)c(F)cc1C1CCN(CC(C)(C)O)CC1` [Example I-337]: in test [1], the concentration for half-maximal inhibition (IC50) was found to be 9 nM. The EC50 in test [2] was 250 to 3000 nM.
Turning to `Cc1cc(N2CCN(C)CC2)ccc1Nc1ncc(C(F)(F)F)c(NCc2cccc3c2C(C)(C)C(=O)N3)n1` [Example I-307], the IC50 in test [1] came out at 1 nM. Also, in test [2], the 50% effective concentration (EC50) was under 50 nM.
As to `COc1cc(C2CCN(CC(C)(C)O)CC2)ccc1Nc1ncc(Cl)c(NCc2cccc3c2C(C)(C)C(=O)N3)n1` [Example I-331], the IC50 in test [1] stood at 1 nM. Also, the concentration for a half-maximal effect (EC50) in test [2] was under 50 nM.
With `COc1cc(C2CCCN(CCO)C2)ccc1Nc1ncc(Cl)c(NCc2cccc3c2C(C)(C)C(=O)N3)n1` (racemic) [Example I-372], the 50% inhibitory concentration (IC50) in test [1] amounted to 0.8 nM. For the same molecule, the concentration for a half-maximal effect (EC50) in test [2] was under 50 nM.
The like results for `CC(C)(O)CN1CCC(c2ccc(Nc3ncc(Cl)c(NCc4cccc5c4C(C)(C)C(=O)N5)n3)c3c2OCO3)CC1` [Example I-341] were, in that order, 0.9 nM and under 50 nM.
As for `CCc1cc(C2CCCN(CCOC)C2)ccc1Nc1ncc(Br)c(NCc2cccc3c2C(C)(C)C(=O)N3)n1` (racemic) [Example I-368], the IC50 in test [1] is 2 nM. Moreover, the EC50 in test [2] is under 50 nM.
Taken in the same sequence, the figures for `COc1cc(C2CCN(CC#N)CC2)ccc1Nc1ncc(Cl)c(NCc2cccc3c2C(C)(C)C(=O)N3)n1` [Example I-374] were 11 nM and 50 to 250 nM.
Taken in the same sequence, the figures for `Cc1cc(N2CCN(CC(C)(C)O)CC2)ccc1Nc1ncc(Cl)c(NCc2cccc3c2C(C)(C)C(=O)N3)n1` [Example I-336] were 4 nM and 50 to 250 nM.
As for `Cc1cc(N2CCN(CC(C)(C)O)CC2)ccc1Nc1ncc(C(F)(F)F)c(NCc2cccc3c2C(C)(C)C(=O)N3)n1` [Example I-305], in test [1], the IC50 was determined as 2 nM. Besides, in test [2], the EC50 lay within 50 to 250 nM.
Turning to `COc1cc(C2CCN(C(=O)CO)CC2)ccc1Nc1ncc(Cl)c(NCc2cccc3c2C(C)(C)C(=O)N3)n1` [Example I-296], the IC50 in test [1] came out at 1 nM. In addition, in test [2], the 50% effective concentration (EC50) was 50 to 250 nM.
The like results for `Cc1cc(C2CCCN(CC(C)(C)O)C2)ccc1Nc1ncc(C(F)(F)F)c(NCc2cccc3c2C(C)(C)C(=O)N3)n1` (racemic) [Example I-306] were, in that order, 1 nM and under 50 nM.
Regarding `CC(C)(O)CN1CCC(c2ccc(Nc3ncc(Cl)c(NCc4cccc5c4C(C)(C)C(=O)N5)n3)cc2)CC1` [Example I-211], the 50% inhibitory concentration (IC50) in test [1] turned out to be 3 nM. In test [2], the EC50 lay within 50 to 250 nM.
